Consider 3 compounds from patent US10272088B2, “FAS inhibitors and methods associated therewith” (Wake Forest University Health Sciences, priority 2014, dated 2019).

A short description of data set [1]: Solubility/aggregation of ICG in PBS.
A further data set concerns cells. The data set can be described thus: Cytotoxicity after pre-incubation in PBS (entrapment/hydrolytic stability). Type of data set: cell-based. The settings on record: pre-incubated in PBS prior to incubating with cells.
The conditions of data set [2]: cited from earlier work.
Data set [3] deals with PC3 prostate, RKO colorectal, and MDA-MB-231 breast cancer cells. Nature of the data set: In vitro cytotoxicity, WST-8 assay. The settings on record: Nano-Orl (PBA ligand) dosed equivalent to 25 m Orlistat, 24 h + 24 h. Background: Tetrazolium dyes change colour on reduction, which living cells bring about.
A further data set concerns PC3 cells. Nature of the data set: Seahorse Mito Stress test, oxygen consumption rate. The settings on record: Orlistat 50 μM, 12 hours.
In another data set the target is FASN (Homo sapiens, UniProt P49327). The data set can be described thus: 14C-acetate incorporation study (FASN inhibition). The settings on record: PC3 cells.
Sequence of FASN (P49327 whole entry): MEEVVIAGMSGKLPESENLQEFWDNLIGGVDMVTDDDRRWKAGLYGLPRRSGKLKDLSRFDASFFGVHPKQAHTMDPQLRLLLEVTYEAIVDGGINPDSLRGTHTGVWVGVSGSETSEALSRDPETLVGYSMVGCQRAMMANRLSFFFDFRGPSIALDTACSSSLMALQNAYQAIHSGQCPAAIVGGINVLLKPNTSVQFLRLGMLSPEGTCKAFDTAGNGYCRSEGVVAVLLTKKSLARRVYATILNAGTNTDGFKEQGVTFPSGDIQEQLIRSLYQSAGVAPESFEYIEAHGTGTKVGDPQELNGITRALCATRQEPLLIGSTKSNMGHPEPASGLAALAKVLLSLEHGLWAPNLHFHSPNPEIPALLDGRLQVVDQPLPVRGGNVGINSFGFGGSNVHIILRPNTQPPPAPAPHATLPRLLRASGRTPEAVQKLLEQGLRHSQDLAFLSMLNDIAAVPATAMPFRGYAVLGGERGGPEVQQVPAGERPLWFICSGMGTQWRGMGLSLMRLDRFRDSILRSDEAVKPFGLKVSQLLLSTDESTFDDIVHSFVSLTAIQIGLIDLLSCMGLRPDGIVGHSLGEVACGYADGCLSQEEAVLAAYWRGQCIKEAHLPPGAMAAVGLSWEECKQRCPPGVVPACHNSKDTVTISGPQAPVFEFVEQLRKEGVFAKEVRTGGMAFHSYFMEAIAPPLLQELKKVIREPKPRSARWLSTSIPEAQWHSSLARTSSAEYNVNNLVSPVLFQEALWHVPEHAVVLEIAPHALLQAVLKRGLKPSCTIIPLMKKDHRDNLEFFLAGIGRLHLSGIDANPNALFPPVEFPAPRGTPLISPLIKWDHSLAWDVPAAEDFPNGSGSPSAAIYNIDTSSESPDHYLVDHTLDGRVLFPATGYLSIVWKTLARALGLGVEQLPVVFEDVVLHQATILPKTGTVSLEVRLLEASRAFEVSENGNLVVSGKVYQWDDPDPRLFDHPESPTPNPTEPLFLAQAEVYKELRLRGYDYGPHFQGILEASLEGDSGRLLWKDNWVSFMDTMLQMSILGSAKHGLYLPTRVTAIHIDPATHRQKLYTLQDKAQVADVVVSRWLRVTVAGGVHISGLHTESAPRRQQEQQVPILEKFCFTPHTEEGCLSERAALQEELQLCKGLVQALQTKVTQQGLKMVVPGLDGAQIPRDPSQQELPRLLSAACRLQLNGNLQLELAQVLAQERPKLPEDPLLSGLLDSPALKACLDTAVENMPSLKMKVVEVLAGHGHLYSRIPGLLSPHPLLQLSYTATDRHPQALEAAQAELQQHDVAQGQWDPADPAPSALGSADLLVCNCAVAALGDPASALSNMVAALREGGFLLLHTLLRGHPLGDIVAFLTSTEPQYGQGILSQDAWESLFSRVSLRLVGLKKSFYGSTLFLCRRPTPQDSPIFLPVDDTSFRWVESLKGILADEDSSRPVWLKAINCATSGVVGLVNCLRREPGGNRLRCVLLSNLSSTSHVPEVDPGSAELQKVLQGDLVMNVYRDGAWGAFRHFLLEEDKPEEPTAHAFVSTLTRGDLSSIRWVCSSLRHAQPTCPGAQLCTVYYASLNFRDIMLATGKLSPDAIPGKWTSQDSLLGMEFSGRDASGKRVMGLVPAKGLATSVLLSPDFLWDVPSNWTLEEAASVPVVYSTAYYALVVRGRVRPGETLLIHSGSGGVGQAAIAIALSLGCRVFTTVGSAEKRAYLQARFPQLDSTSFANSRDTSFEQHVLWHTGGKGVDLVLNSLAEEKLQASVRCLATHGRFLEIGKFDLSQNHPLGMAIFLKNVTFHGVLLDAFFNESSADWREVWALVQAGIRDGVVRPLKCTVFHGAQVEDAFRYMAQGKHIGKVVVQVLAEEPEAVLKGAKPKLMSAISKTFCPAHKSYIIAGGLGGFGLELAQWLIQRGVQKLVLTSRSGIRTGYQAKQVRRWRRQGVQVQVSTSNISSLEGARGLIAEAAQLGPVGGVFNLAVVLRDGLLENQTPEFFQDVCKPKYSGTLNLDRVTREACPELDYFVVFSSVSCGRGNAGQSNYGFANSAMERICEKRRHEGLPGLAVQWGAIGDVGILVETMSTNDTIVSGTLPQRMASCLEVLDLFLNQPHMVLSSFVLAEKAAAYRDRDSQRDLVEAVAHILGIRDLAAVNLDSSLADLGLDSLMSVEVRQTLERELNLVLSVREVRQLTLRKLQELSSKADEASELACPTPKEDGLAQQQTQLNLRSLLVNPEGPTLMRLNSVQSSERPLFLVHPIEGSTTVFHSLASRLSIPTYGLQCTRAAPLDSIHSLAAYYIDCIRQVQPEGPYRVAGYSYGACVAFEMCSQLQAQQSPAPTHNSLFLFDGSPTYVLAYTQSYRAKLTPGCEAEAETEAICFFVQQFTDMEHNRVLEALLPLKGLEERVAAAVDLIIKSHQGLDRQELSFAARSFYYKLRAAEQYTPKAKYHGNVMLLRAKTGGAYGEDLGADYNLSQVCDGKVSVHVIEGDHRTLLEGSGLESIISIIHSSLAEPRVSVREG

Entries after “also recorded” stand apart in the source; their conditions may differ.

With `CC1(C)C(/C=C/C=C/C=C/C=C2\N(CCCCS(=O)(=O)O)c3ccc4ccccc4c3C2(C)C)=[N+](CCCCS(=O)(=O)[O-])c2ccc3ccccc3c21` [ICG, indocyanine green], the “solubility in PBS” value in data set [1] was “not soluble in PBS; also recorded: rapidly aggregates in PBS”.

Turning to `CCCCCCCCCCC[C@@H](C[C@@H]1OC(=O)[C@H]1CCCCCC)OC(=O)[C@H](CC(C)C)NC=O` [Orlistat], the “cytotoxicity after pre-incubation in PBS” value with cells is given as “rendered ineffective; also recorded: dramatically reduces its efficacy”. Besides, the “tumor growth in vivo” value in data set [2] (compared to a sham control) is “inhibits tumor growth in vivo”. Moreover, in data set [2] (in vivo), the bioavailability entry is reported as “poor bioavailability”. For the same compound, the “viability relative to the NP vehicle media control” value in data set [3] is given as “consistent with free Orlistat”. Moreover, the “mitochondrial capacity (oxygen consumption rate)” value with PC3 cells is reported as “decreases mitochondrial capacity; also recorded: negatively impacts mitochondrial capacity”.

`CCCCCCCCCCCCCCOc1ccc(C(=O)O)o1` [TOFA]: the “14C-acetate incorporation into lipids (FASN inhibition)” value at FASN is listed as “inhibited FASN mediated incorporation of acetate in lipids”.
